# Assay results as given in article PMC12658643, “Effects of Ligand N and O Donor Content on the Structure, Aqueous Stability, and SOD Activity of a Series of Mn^2+ Complexes with Pyridine-Containing Tripodal Ligands” (ACS Omega, 2025).
# Where two headings read alike, the source gives them in different places.
# B1: Human MnSOD: human manganese superoxide dismutase enzyme (protein, UniProt P04179 25-222, looked up)
# Superoxide dismutase [Mn], …: KHSLPDLPYDYGALEPHINAQIMQLHHSKHHAAYVNNLNVTEEKYQEALAKGDVTAQIALQPALKFNGGGHINHSIFWTNLSPNGGGEPKGELLEAIKRDFGSFDKFKEKLTAASVGVQGSGWGWLGFNKERGHLQIAACPNQDPLQGTTGLIPLLGIDVWEHAYYLQYKNVRPDYLKAIWNVINWENVTERYMACKK
# What was measured:
# [1] = for Log βMnL (stability constant of the Mn^2+ complex) / pK aMnL(H2O) (acid dissociation constant of an associated aqua ligand) / Log Ka MnL(H2O) / Log bMnL: I = 0.10 M KCl; for Log βMnL (stability constant of the Mn^2+ complex) / pK aMnL(H2O) (acid dissociation constant of an associated aqua ligand): t = 25 °C; for conditional complex formation: McCord-Fridovich assay conditions, HEPES buffer pH 7.5, excess ligand, Mn^2+ 0.1 μM, estimated from βMnL; for Log Ka MnL(H2O) / Log bMnL: Table S35, t = 25°C; for % Complex (McCord-Fridovich assays): Table S37, ligand 0.001 M (TMPA, DPEA, DPMEA) or 0.01 M (PDEA, PDMEA), MnCl2 0.1 µM, estimated from stability studies; for % Complex (complex formation under cyclic voltammetry conditions): ligand 0.001 M (TMPA) or 0.01 M, MnCl2 0.001 M, estimated from complex stability studies
# [2] = Potentiometric titration of the acidified ligands (protonation constants); conditions: I = 0.10 M KCl; for Log βLH1 (protonation constant of the ligand) / Log βLH2 (protonation constant of the ligand): t = 25 °C; for Log Ka1 / Log Ka2: Table S35, t = 25°C
# superoxide ion = assay: McCord-Fridovich assay (SOD activity, inhibition of ferricytochrome c reduction by superoxide ion); format: biochemical
# From the text: The McCord–Fridovich assay was used to measure the SOD activity of the Mn^2+ complexes of our ligands formed in situ. This assay utilizes the reaction of xanthine oxidase with xanthine to produce superoxide ion which, in turn, reduces ferricytochrome C. The reduction of ferricytochrome C is monitored at 550 nm in the absence and presence of SOD mimics to determine the concentration at which the complexes inhibit ferricytochrome C reduction by 50%, their IC50 value. […] Stock solutions of cytochrome C, xanthine, xanthine oxidase, catalase, and MnCl2 were also prepared with this buffer. The temperature of the reactions was held constant at 25 °C using a Peltier attachment to the spectrophotometer. For a typical reaction, a solution was prepared in a cuvette containing 50 μM cytochrome c, 50 μM xanthine, 30 μg/mL catalase, and enough buffer to provide a total of 3 mL of solution. Approximately 100 μg/mL xanthine oxidase was added to initiate the reaction. This quantity was adjusted to give an initial velocity of 0.025–0.030 ΔAbs550nm/min. The reaction was monitored at 550 nm. After 2.5 min, a quantity of MnCl2 was added and the absorbance was monitored for another 2.5 min. Reactions were run in triplicate for each different concentration of Mn^2+ examined, and percent inhibition was calculated as %I=(V0−Vf/V0)×100% , where V 0 and V f are the initial and final velocities respectively. Plots of %I vs [Mn^2+] were used to determine the IC50 for each complex. To verify the fidelity of the McCord-Fridovich assay, the production of urate by the xanthine/xanthine oxidase reaction at 290 nm in the absence and presence of each complex, and no inhibition at a concentration higher than the IC50 was observed.
# The SOD-like activity of Mn^2+ complexes of the tripodal ligands was evaluated using the McCord-Fridovich assay. This is an indirect assay that examines the reduction of ferricytochrome c by superoxide ion in the absence and presence of SOD or potential SOD mimetic compounds. The reaction of xanthine with xanthine oxidase provides a source of superoxide ion for the assay, and the reduction of ferricytochrome c is monitored at 550 nm. Given their low to moderate aqueous stability, it was not possible to use preformed complexes for these assays since we would not expect them to remain intact at the micromolar concentrations employed. Instead, Mn^2+ complexes were formed in situ, in buffered, aqueous solution (pH 7.5), by combining the ligands with manganese(II) chloride. In each case, an excess of ligand was included to produce Mn^2+ complexation as close to 100% as possible, while avoiding solubility issues. Percent complexation of the complexes under these conditions has been estimated from the 1:1 [MnL]^2+ stability constants (βMnL) in Table , based on the ligand complex concentration employed and an Mn^2+ concentration close to the IC50 values of the complexes (0.1 μM). We note that, given the high concentrations of ligand present in our experiments, higher speciation complexes (e.g., [MnL2]^2+) may also be present in our reaction solutions, resulting from adventitious mono-or bidentate-coordination of an additional ligand. These types of species have been observed previously for Mn^2+ complexes with a related ligand (HPClNOL), where HPClNOL is the tripodal ligand {1-[bis(pyridine-2-ylmethyl)-amino]-3-chloropropan-2-ol}, yet in a 50:50, MeOH/H2O solution where overall complex stability is expected to be much higher. Since we cannot rule out higher speciation under the conditions of these in situ experiments, our use of the term Mn^2+ complexes is meant to indicate all [MnL]^2+ or [MnL x ]^2+ species present in reaction solutions here.
# Percent inhibition plots for MnCl2 in both HEPES and phosphate buffer are provided in Supporting Information (Figures S35 and S36). […]
# [3] = Cyclic voltammetry of Mn^2+ complexes formed in situ, Mn^III/Mn^II couple; format: physicochemical
# Method: Cyclic voltammograms were recorded in 50 mM collidine buffer, pH 7.5, using an eDAQ 466 Integrated Potentiostat System with EChem software. Mn^2+ complexes were formed in situ in the presence of excess ligand to ensure a high percentage of complex formation (see Table S35 in Supporting Information) according to our stability studies vide infra. A glassy carbon working electrode, Ag/AgCl reference electrode, and Pt/Ti auxiliary electrode were employed. Prior to recording CVs, solutions were bubbled with nitrogen gas for 15 min to eliminate oxygen. CVs were then recorded at a scan rate of 100 mV/s.
# Cyclic voltammograms of the Mn^2+ complexes of TMPA, DPEA, DPMEA, PDEA, and PDMEA, prepared in situ in buffered aqueous solution (pH 7.5), were recorded vs Ag/AgCl to determine the reduction potential (E 1/2) for the Mn^III/Mn^II couple. A cyclic voltammogram of MnCl2 in the buffered solution was also recorded for the purpose of comparison. Collidine buffer was employed for analysis since it tends to permit visualization of electrochemical waves for Mn^2+ complexes with pyridine-containing ligands, where other solvents/buffers can lead to ill-defined or absent features for these species. Ligand and MnCl2 concentrations were chosen to ensure near complete (N4 and N3O), or substantial (N2O2) complex formation according to our stability studies. For [MnTMPA]^2+, an equimolar amount of TMPA and MnCl2 were used (0.001 M), and for all other complexes, ligand concentration (0.01 M) was 10-fold the concentration of MnCl2 (0.001 M). In each case, […] waves were recorded where the difference in oxidation and reduction peak positions (ΔE p) is greater than 59 mV. Redox potential values (E 1/2), determined from the average of the positions of the oxidation and reduction peaks, are given in Table along with ΔE p values. The distinct positions of these peaks, relative to those of MnCl2, further corroborate [MnL]^2+ aqueous complex formation of the N4, N3O, and N2O2 ligands employed. Voltammograms can be found in Supporting Information (Figures S29–S34 ).
# [4] = given for comparison to the complexes; reference not given; cited from earlier work
# [5] = HEPES buffer, pH 7.5, measured IC50 corrected for expected percent complex formation, read-out: apparent IC50
# [6] = Mn^2+ complexes formed in situ with excess ligand, 50 mM HEPES buffer, pH 7.5, 25 °C, concentration as Mn^2+, read-out: measured IC50
# [7] = collidine buffer, pH 7.5, scan rate 100 mV/s, vs Ag/AgCl
# [8] = HEPES buffer, pH 7.5, estimated using kcat=kcytc[cytc]/IC50, k cytc = 2.6 × 10^5 M^–1 s^–1, [cyt c] = 5 × 10^–5 M
molecule,measurement,setting,value
"OCCN(Cc1ccccn1)Cc1ccccn1 [DPEA, N,N-Bis(2-pyridylmethyl)ethanolamine]",Log βMnL (stability constant of the Mn^2+ complex),[1],4.12(1)
same,pK aMnL(H2O) (acid dissociation constant of an associated aqua ligand),[1],5.63(1)
same,conditional complex formation,[1],92%
same,Log Ka MnL(H2O),[1],-5.63(1)
same,Log bMnL,[1],4.12(1)
same,% Complex (McCord-Fridovich assays),[1],92%
same,% Complex (complex formation under cyclic voltammetry conditions),[1],98%
same,Log βLH1 (protonation constant of the ligand),[2],6.10(1)
same,Log βLH2 (protonation constant of the ligand),[2],9.40(3)
same,Log Ka1,[2],6.10(1)
same,Log Ka2,[2],9.40(3)
same,IC50,superoxide ion; [5],140 nM
same,IC50,superoxide ion; [6],150 nM
"COCCN(Cc1ccccn1)Cc1ccccn1 [DPMEA, 2-Methoxy-N,N-bis(pyridin-2-ylmethyl)ethan-1-amine]",Log βMnL (stability constant of the Mn^2+ complex),[1],3.71(2)
same,pK aMnL(H2O) (acid dissociation constant of an associated aqua ligand),[1],6.07(2)
same,conditional complex formation,[1],80%
same,Log Ka MnL(H2O),[1],-6.07(2)
same,Log bMnL,[1],3.71(2)
same,% Complex (McCord-Fridovich assays),[1],80%
same,% Complex (complex formation under cyclic voltammetry conditions),[1],97%
same,Log βLH1 (protonation constant of the ligand),[2],6.19(1)
same,Log βLH2 (protonation constant of the ligand),[2],9.81(1)
same,Log Ka1,[2],6.19(1)
same,Log Ka2,[2],9.81(1)
same,IC50,superoxide ion; [5],480 nM
same,IC50,superoxide ion; [6],600 nM
"[Cl][Mn][Cl] [MnCl2, manganese(II) chloride, reference compound]",ΔE p,"[3]; collidine buffer, pH 7.5, scan rate 100 mV/s",0.285
same,E oxid,[3]; [7],0.415 V
same,E red,[3]; [7],0.130 V
same,E 1/2 vs Ag/AgCl,"[3]; collidine buffer, pH 7.5, average of oxidation and reduction peak positions",0.273 V
same,E 1/2 vs SHE,[3]; converted using E 1/2 SHE = E 1/2 Ag/AgCl + 0.197 V,0.470 V
same,k cat,"superoxide ion; 50 mM phosphate buffer, pH 7.5, estimated from IC50",2.8 × 10^7 M^–1 s^–1
same,IC50,"superoxide ion; 50 mM phosphate buffer, pH 7.5, read-out: measured IC50",470 nM
same,SOD activity in the range of the IC50 values of the complexes,superoxide ion; HEPES buffer,do not observe measurable SOD activity
same,k cat,superoxide ion; [8],1.0 × 10^6 M^–1 s^–1
same,IC50,superoxide ion; [6],13000 nM
"OCCN(CCO)Cc1ccccn1 [PDEA, 2,2′-((Pyridin-2-ylmethyl)azanediyl)bis(ethan-1-ol)]",pK aMnL(H2O) (acid dissociation constant of an associated aqua ligand),[1],7.00(2)
same,conditional complex formation,[1],66%
same,Log Ka MnL(H2O),[1],-7.00(2)
same,% Complex (McCord-Fridovich assays),[1],66%
same,% Complex (complex formation under cyclic voltammetry conditions),[1],66%
same,Log βLH1 (protonation constant of the ligand),[2],6.78(1)
same,Log Ka1,[2],6.78(1)
same,IC50,superoxide ion; [5],70 nM
same,IC50,superoxide ion; [6],110 nM
"COCCN(CCOC)Cc1ccccn1 [PDMEA, 2-Methoxy-N-(2-methoxyethyl)-N-(pyridin-2-ylmethyl)ethan-1-amine]",Log βMnL (stability constant of the Mn^2+ complex),[1],2.32(2)
same,pK aMnL(H2O) (acid dissociation constant of an associated aqua ligand),[1],6.6(1)
same,conditional complex formation,[1],61%
same,Log Ka MnL(H2O),[1],-6.6(1)
same,Log bMnL,[1],2.32(2)
same,% Complex (McCord-Fridovich assays),[1],61%
same,% Complex (complex formation under cyclic voltammetry conditions),[1],61%
same,Log βLH1 (protonation constant of the ligand),[2],6.90(2)
same,Log Ka1,[2],6.90(2)
same,k cat,superoxide ion; [8],1.6 × 10^7 M^–1 s^–1
same,IC50,superoxide ion; [5],790 nM
same,IC50,superoxide ion; [6],1300 nM
"c1ccc(CN(Cc2ccccn2)Cc2ccccn2)nc1 [TMPA, Tris(pyridin-2-ylmethyl)amine]",Log βMnL (stability constant of the Mn^2+ complex),[1],5.24(2)
same,pK aMnL(H2O) (acid dissociation constant of an associated aqua ligand),[1],4.98(3)
same,conditional complex formation,[1],99%
same,Log Ka MnL(H2O),[1],-4.98(3)
same,Log bMnL,[1],5.24(2)
same,% Complex (McCord-Fridovich assays),[1],99%
same,% Complex (complex formation under cyclic voltammetry conditions),[1],93%
same,Log βLH1 (protonation constant of the ligand),[2],6.01(1)
same,Log βLH2 (protonation constant of the ligand),[2],10.08(1)
same,Log Ka1,[2],6.01(1)
same,Log Ka2,[2],10.08(1)
same,IC50,superoxide ion; [5],300 nM
same,IC50,superoxide ion; [6],300 nM
B1,E 1/2 vs SHE of MnSOD enzymes,[4],0.29 V
